Source: ChEMBL document CHEMBL3817759, “Novel drug design for Chagas disease via targeting Trypanosoma cruzi tubulin: Homology modeling and binding pocket prediction on Trypanosoma cruzi tubulin polymerization inhibition by naphthoquinone derivatives” (Bioorg Med Chem, 2016)

Key:
[1] = Inhibition of Trypanosoma cruzi tubulin polymerization incubated at room temperature for 15 mins followed by 5 mins at 4 degC in presence of GTP by photometric method
[2] = test system: Trypanosoma cruzi; experiment: Antitrypanosomal activity against epimastigote stage of Trypanosoma cruzi Tulahuen CL98 after 48 hrs by hemocytometry; assay type: functional, organism-based; conditions: Tulahuen CL98, 48 h

SMILES	IC50 [1] [µM]	IC50 [2] [µM]
CCCC(=O)N(C(=O)CCC)C1=C(Cl)C(=O)c2ccccc2C1=O	3.2	0.7
O=C1C(Cl)=C(N(C(=O)c2cccc(Cl)c2)C(=O)c2cccc(Cl)c2)C(=O)c2ccccc21	8	2.23
O=C1C(Cl)=C(N2C(=O)c3ccccc3C2=O)C(=O)c2ccccc21	12	4.83
O=C1C(Cl)=C(N(C(=O)CCl)C(=O)CCl)C(=O)c2ccccc21	> 40	6.1
O=C1C(Cl)=C(N2C(=O)CCC2=O)C(=O)c2ccccc21	6	2.77
CC1CS(=O)(=O)CCN1/N=C/c1ccc([N+](=O)[O-])o1 (stereo unspecified) [NIFURTIMOX]	–	10.7
